Laboratory results reported in patent US20150305333A1, “USE OF GLUCOSAMINE AMIDES AS PLANT GROWTH AND YIELD ENHANCERS” (PIONEER HI-BRED INTERNATIONAL, INC., priority 2012, published 2015).

Columns and labels:
Type in all cases: in vivo
[1] = system: Shepody potatoes (Solanum tuberosum); experiment: Potato field trial 2010: emergence, flowering, marketable yield; conditions: for Marketable Potato Yield for One Row of Plot: one 8 m row, fresh weight
Protocol: A potato field trial was conducted to evaluate the effects of NPG on plant emergence, flowering and yield in Shepody potatoes (Solanum tuberosum) planted near Thorndale, Ontario, Canada, in 2010. Seed treatments included an Untreated Control, three concentrations of NPG and three concentrations of an LCO derived from Bradyrhizobium japonicum to serve as a positive control. The LCO was provided by Dr. Don Smith (McGill University, Montreal, Canada) using the basic method described in Soulemanov, A., et al., in Microbiol. Res., 157: 25-28 (2005). Aqueous solutions of NPG and LCO were applied at 10^−6M, 10^−7M and 10^−8M to seed pieces using a spray nozzle and left to soak on a plastic sheet for 20 minutes. The seed pieces were beginning to sprout when planted on June 8th in a loam composed of 41% sand, 39% silt and 20% clay and 4.5% organic matter.
Potatoes were planted at a rate of 33,300 seed pieces/ha to a depth of 20 cm and hilled using a tractor mounted potato hiller. Weeds were controlled using three L/ha of 40.6 wt % linuron. Insects were controlled using 250 ml/ha 18.4 wt % chlorantraniprole, and disease was controlled using a tank mix of 1.6 kg/ha 75 wt % mancozeb and 225 g/ha 60 wt % cymoxanil fungicides. Before harvest, plants were sprayed twice (seven days apart) with 39.5 wt % diquat dibromide herbicide at a rate of 2 L/ha. All of the products used are industry standards and representative of what is used in commercial production.
The trial was conducted using a randomized complete block design with a plot size of 2 m by 8 m with a 100 cm row spacing, 30 cm plant spacing and four replications Due to wet weather, the soil was damp and cloddy during the planting and hilling process.
Marketable potato yield was determined by harvesting one entire 8 m row of the plot (Table 3). The Untreated Control row with the highest emergence was harvested. Yields were not corrected for differences in emergence rates. The 10^−6 M and 10^−7 M NPG treatments and the 10^−8 M LCO treatment provided a statistically significant increase in marketable fresh weight yield compared to the Untreated Control.

soybean seeds = experiment: Petri dish seed germination assay, soybean
Protocol: (§1) A series of Petri dish seed assays was conducted to evaluate the effects NPG on the seed germination rates of corn, soybean, and canola seeds subjected to cold stress, salt stress and non-stressed conditions (salt stress only for canola). Assays were performed with ten replications of ten seeds/plate (100 total seeds). NPG was applied to seeds at the specified concentrations prior to being placed in Petri plates. Seeds designated for Salt Stress Experiments 1 & 2 were placed in Petri dishes containing a 100 mM NaCl solution and incubated at 21° C.-22° C. in the dark. Cold stress Petri dishes were incubated at 15° C. in the dark. Untreated Controls were incubated at 21° C.-22° C. in the dark as were seeds utilized in the separately conducted non-stressed germination assays. Data was recorded as percent germination at designated times after plating. Statistical analyses were performed using one-way Anova and Kruskal-Wallis one-way analysis of variance on rank combined with Dunn's all pairwise multiple comparison procedure (α=0.05).

corn seeds = experiment: Petri dish seed germination assay, corn
Protocol: as §1

For CCCCCCC=CCCCCCCCC(=O)NC1C(OC)OC(CO)C(O)C1O [NPG, Methyl 2-deoxy-2-N-(hexadece-9,10-cis-eneoyl)-β-D-glucopyranoside], the “Potato Emergence” value ([1]; 10^−6M seed piece treatment, 15 DAP) was 16b %, the “Potato Emergence” value ([1]; 10^−6M seed piece treatment, 17 DAP) was 41b % and the “Potato Emergence” value ([1]; 10^−6M seed piece treatment, 21 DAP) was 68c %. For the same compound, the “Potato Emergence” value ([1]; 10^−6M seed piece treatment, 29 DAP) was 72c %, the “Potato Flowering” value ([1]; 10^−6M seed piece treatment, 42 DAP) was 19a % and the “Potato Flowering” value ([1]; 10^−6M seed piece treatment, 50 DAP) was 53ab %. For the same compound, the “Marketable Potato Yield for One Row of Plot” value (“Marketable Potato Yield” below) ([1]; 10^−6M seed piece treatment) was 17.92b Kg/Plot, the “Potato Emergence” value ([1]; 10^−7M seed piece treatment, 15 DAP) was 9ab % and the “Potato Emergence” value ([1]; 10^−7M seed piece treatment, 17 DAP) was 30ab %. For the same compound, the “Potato Emergence” value ([1]; 10^−7M seed piece treatment, 21 DAP) was 48b %, the “Potato Emergence” value ([1]; 10^−7M seed piece treatment, 29 DAP) was 52b % and the “Potato Flowering” value ([1]; 10^−7M seed piece treatment, 42 DAP) was 20a %. For the same compound, the “Potato Flowering” value ([1]; 10^−7M seed piece treatment, 50 DAP) was 47ab %, the “Marketable Potato Yield” value ([1]; 10^−7M seed piece treatment) was 16.05b Kg/Plot and the “Potato Emergence” value ([1]; 10^−8M seed piece treatment, 15 DAP) was 13ab %. The “Potato Emergence” value ([1]; 10^−8M seed piece treatment, 17 DAP) was 30ab %, the “Potato Emergence” value ([1]; 10^−8M seed piece treatment, 21 DAP) was 45b % and the “Potato Emergence” value ([1]; 10^−8M seed piece treatment, 29 DAP) was 55b %. For the same compound, the “Potato Flowering” value ([1]; 10^−8M seed piece treatment, 42 DAP) was 11a %, the “Potato Flowering” value ([1]; 10^−8M seed piece treatment, 50 DAP) was 54ab % and the “Marketable Potato Yield” value ([1]; 10^−8M seed piece treatment) was 13.80ab Kg/Plot. The “Soybean Seed Germination” value (soybean seeds; Cold Stress (15° C.), 10^−6M × 4 Times, 30 HAP) was 29a %, the “Soybean Seed Germination” value (soybean seeds; Cold Stress (15° C.), 10^−6M × 4 Times, 36 HAP) was 58a % and the “Soybean Seed Germination” value (soybean seeds; Cold Stress (15° C.), 10^−6M × 4 Times, 44 HAP) was 81a %. The “Soybean Seed Germination” value (soybean seeds; Cold Stress (15° C.), 10^−6M × 4 Times, 50 HAP) was 90a %, the “Soybean Seed Germination” value (soybean seeds; Cold Stress (15° C.), 10^−6M × 4 Times, 60 HAP) was 97a % and the “Soybean Seed Germination” value (soybean seeds; Cold Stress (15° C.), 10^−6M, 30 HAP) was 26a %. The “Soybean Seed Germination” value (soybean seeds; Cold Stress (15° C.), 10^−6M, 36 HAP) was 58a %, the “Soybean Seed Germination” value (soybean seeds; Cold Stress (15° C.), 10^−6M, 44 HAP) was 80a % and the “Soybean Seed Germination” value (soybean seeds; Cold Stress (15° C.), 10^−6M, 50 HAP) was 90a %. The “Soybean Seed Germination” value (soybean seeds; Cold Stress (15° C.), 10^−6M, 60 HAP) was 96a %, the “Soybean Seed Germination” value (soybean seeds; Cold Stress (15° C.), 10^−7M, 30 HAP) was 23a % and the “Soybean Seed Germination” value (soybean seeds; Cold Stress (15° C.), 10^−7M, 36 HAP) was 51a %. For the same compound, the “Soybean Seed Germination” value (soybean seeds; Cold Stress (15° C.), 10^−7M, 44 HAP) was 84a %, the “Soybean Seed Germination” value (soybean seeds; Cold Stress (15° C.), 10^−7M, 50 HAP) was 91a % and the “Soybean Seed Germination” value (soybean seeds; Cold Stress (15° C.), 10^−7M, 60 HAP) was 95a %. For the same compound, the “Soybean Seed Germination” value (soybean seeds; Non-Stressed, 10^−6M × 4 Times, 27 HAP) was 72a %, the “Soybean Seed Germination” value (soybean seeds; Non-Stressed, 10^−6M × 4 Times, 34 HAP) was 88a % and the “Soybean Seed Germination” value (soybean seeds; Non-Stressed, 10^−6M × 4 Times, 45 HAP) was 94a %. The “Soybean Seed Germination” value (soybean seeds; Non-Stressed, 10^−6M, 27 HAP) was 70a %, the “Soybean Seed Germination” value (soybean seeds; Non-Stressed, 10^−6M, 34 HAP) was 93a % and the “Soybean Seed Germination” value (soybean seeds; Non-Stressed, 10^−6M, 45 HAP) was 97a %. For the same compound, the “Soybean Seed Germination” value (soybean seeds; Salt Stress (100 mM NaCl), 10^−6M × 4 Times, 27 HAP) was 17a %, the “Soybean Seed Germination” value (soybean seeds; Salt Stress (100 mM NaCl), 10^−6M × 4 Times, 34 HAP) was 76ab % and the “Soybean Seed Germination” value (soybean seeds; Salt Stress (100 mM NaCl), 10^−6M × 4 Times, 45 HAP) was 89ab %. The “Soybean Seed Germination” value (soybean seeds; Salt Stress (100 mM NaCl), 10^−6M × 4 Times, 55 HAP) was 96a %, the “Soybean Seed Germination” value (soybean seeds; Salt Stress (100 mM NaCl), 10^−6M × 4 Times, 65 HAP) was 99a % and the “Soybean Seed Germination” value (soybean seeds; Salt Stress (100 mM NaCl), 10^−6M, 27 HAP) was 22a %. The “Soybean Seed Germination” value (soybean seeds; Salt Stress (100 mM NaCl), 10^−6M, 34 HAP) was 73ab %, the “Soybean Seed Germination” value (soybean seeds; Salt Stress (100 mM NaCl), 10^−6M, 45 HAP) was 83ab % and the “Soybean Seed Germination” value (soybean seeds; Salt Stress (100 mM NaCl), 10^−6M, 55 HAP) was 95a %. The “Soybean Seed Germination” value (soybean seeds; Salt Stress (100 mM NaCl), 10^−6M, 65 HAP) was 99a %, the “Corn Seed Germination” value (corn seeds; Cold Stress (15° C.), 10^−6M, 48 HAP) was 13ab % and the “Corn Seed Germination” value (corn seeds; Cold Stress (15° C.), 10^−6M, 56 HAP) was 52a %. For the same compound, the “Corn Seed Germination” value (corn seeds; Cold Stress (15° C.), 10^−6M, 65 HAP) was 100%, the “Corn Seed Germination” value (corn seeds; Cold Stress (15° C.), 10^−7M, 48 HAP) was 20ab % and the “Corn Seed Germination” value (corn seeds; Cold Stress (15° C.), 10^−7M, 56 HAP) was 52a %. The “Corn Seed Germination” value (corn seeds; Cold Stress (15° C.), 10^−7M, 65 HAP) was 100%, the “Corn Seed Germination” value (corn seeds; Non-Stressed, 10^−6M, 28 HAP) was 34a % and the “Corn Seed Germination” value (corn seeds; Non-Stressed, 10^−6M, 34 HAP) was 80a %. For the same compound, the “Corn Seed Germination” value (corn seeds; Non-Stressed, 10^−6M, 44 HAP) was 100a %, the “Corn Seed Germination” value (corn seeds; Salt Stress (100 mM NaCl) Experiment 2, 10^−6M, 32 HAP) was 20b % and the “Corn Seed Germination” value (corn seeds; Salt Stress (100 mM NaCl) Experiment 2, 10^−6M, 42 HAP) was 90a %. The “Corn Seed Germination” value (corn seeds; Salt Stress (100 mM NaCl) Experiment 2, 10^−7M, 32 HAP) was 44a % and the “Corn Seed Germination” value (corn seeds; Salt Stress (100 mM NaCl) Experiment 2, 10^−7M, 42 HAP) was 87a %.
